Experiment: Stability study of the oral suspensions (HPLC assay and degradation products)
Type: physicochemical
Experimental: The stability study is performed for maximum 3 days at the storage conditions of room temperature (about 20-25° C.) and/or 5° C. ( fridge). The start point (TO) is performed about 1 minute after preparation. Furthermore, a “24 hours” and “3 days” time point at room temperature and 5° C. is performed.
Analytical methods: For each time-point tested, the degradation products of Tegaserod by HPLC are evaluated. Analytical methods are based on Test Methods described below.
Procedure for assay determination: For each time-point, one tablet is crushed according to the above procedure. The crushed tablet is transferred quantitatively into a 100 ml amber glass volumetric flask. 50 ml of the beverage is carefully added and the suspension is shaken vigorously by hand a few time and allowed to stand for the storage time tested. The suspension is re-homogenized, by shaking by hand. For extraction, the flask is filled to the mark with methanol (about 50 ml) then shaken for 30 minutes under magnetic stirring, sonicated for 10 minutes and shaken for 30 minutes under magnetic stirring. An aliquot of the methanol solution is centrifuged. The clear supernatant of the above solution is used as the test solution and is analyzed by HPLC (Isocratic HPLC on reversed phase RP-8 with UV detection). The same procedure is carried out once for each beverage but without tablet powder and the resulting chromatograms are compared for new appearance of any peak.
Procedure for determination of degradation products: In order to enable to reach a sufficiently low limit to quantify the degradation products, the number of tablets to be crushed is increased. For each time-point, 6 tablets for 2 mg dosage strength (or 5 tablets for 6 mg dosage strength) are crushed according to the above procedure. The crushed tablet is transferred quantitatively into a 20 ml for 2 mg dosage strength (or 50 ml amber glass volumetric flask for 6 mg dosage strength). 10 ml for 2 mg dosage strength (or 25 ml for 6 mg dosage strength) of the beverage are added carefully. The suspension is shaken vigorously by hand a few time and is allowed to stand for the storage time tested. The suspension is re-homogenized by shaking by hand. For extraction, the flask is filled to the mark with acetonitrile and is shaken for 30 minutes under magnetic stirring, sonicated for 10 minutes and shaken for 30 minutes under magnetic stirring. An aliquot of the homogenized solution is centrifuged.
The clear supernatant of the above solution is used as the test solution in order to quantify using a gradient HPLC on reversed phase RP-8 with UV detection. The same procedure is carried out once for each beverage but without crushed tablet and the resulting chromatograms are compared and analyzed according to the scheme below.
Acceptance criteria: Tegaserod is assumed stable in the tested media if the following acceptance criteria are met for the time-points studied.

SMILES: CCCCCNC(=N)NN=Cc1c[nH]c2ccc(OC)cc12 [Tegaserod, 3-(5-methoxy-1H-indol-3-yl-methylene)-N-pentylcarbazimidamide]
- time stable (crushed tablet in apple juice, fridge (5° C.), 2 mg dosage strength): at least 24 hours
- time stable (crushed tablet in apple juice, fridge (5° C.), 6 mg dosage strength): up to 3 days
- time stable (crushed tablet in apple juice, room temperature): at least 1 hour
- time stable (crushed tablet in orange juice, fridge (5° C.), 2 mg dosage strength): at least 24 hours
- time stable (crushed tablet in orange juice, fridge (5° C.), 6 mg dosage strength): up to 3 days
- time stable (crushed tablet in orange juice, room temperature): at least 1 hour
- time stable (crushed tablet in water, fridge (5° C.), 2 mg dosage strength): at least 24 hours
- time stable (crushed tablet in water, fridge (5° C.), 6 mg dosage strength): up to 3 days
- time stable (crushed tablet in water, room temperature): at least 1 hour
